Measured values: US20220380310A1, “P2X7R ANTAGONISTS” (priority 2019, published 2022)

What follows are compounds tested against T1, P2X7R (Homo sapiens, UniProt Q99572) (assay: Yo-Pro-1 uptake assay (Yo-Pro-1 Assay) in HEK-293 cells transiently transfected with P2X7R). Conditions: HEK293; compound at 5 μM; 30 μM bzATP stimulus; reading 1 hour after stimulation; transfected HEK-293 cells; read-out: Percentage of activity remains in the presence of the compound at 5 μM, P2X7R (Yo-Pro-1 Assay).
T1 construct: expressed in transfected cells; host or cells: HEK-293
T1 sequence (Q99572 1-595): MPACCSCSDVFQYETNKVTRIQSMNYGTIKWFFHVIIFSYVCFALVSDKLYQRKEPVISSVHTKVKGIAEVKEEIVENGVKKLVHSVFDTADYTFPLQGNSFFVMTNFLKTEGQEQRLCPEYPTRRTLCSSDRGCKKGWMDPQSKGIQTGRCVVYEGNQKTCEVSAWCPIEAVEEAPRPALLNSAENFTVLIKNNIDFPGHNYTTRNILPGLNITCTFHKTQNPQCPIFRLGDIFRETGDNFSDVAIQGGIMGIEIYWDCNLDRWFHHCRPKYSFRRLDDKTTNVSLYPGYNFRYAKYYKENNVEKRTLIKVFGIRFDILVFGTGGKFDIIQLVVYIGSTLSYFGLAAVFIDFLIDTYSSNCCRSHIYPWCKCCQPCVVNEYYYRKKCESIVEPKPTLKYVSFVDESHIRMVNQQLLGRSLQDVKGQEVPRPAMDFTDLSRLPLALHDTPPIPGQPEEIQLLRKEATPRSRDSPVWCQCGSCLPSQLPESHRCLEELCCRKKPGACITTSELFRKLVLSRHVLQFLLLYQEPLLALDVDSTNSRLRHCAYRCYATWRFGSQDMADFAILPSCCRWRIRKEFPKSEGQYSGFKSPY
Type: cell-based
From the text: (§1) Yo-Pro-1 Iodide (Cat. No Y3603 from Fisher Scientific) is a fluorescent DNA-binding dye with a MW of 629 Da. This method is based upon the Yo-Pro-1 entrance to cells through the dilated or “large pore form” of P2X7R and its binding to intracellular DNA whereby it increases its fluorescence intensity (J. Pharmacol. Exp. Ther. 308, 1053-1061). The dye has an absorption spectrum compatible with excitation at 488 nm by argon laser sources and its emission wavelength is in the range of 515-575 nm. This Yo-Pro-1 uptake was measured in HEK-293 cells transiently transfected with P2X7R (J. Biol. Chem. 290, 7930-7942). In Brief, HEK-293 cells were seeded in growth medium at approximately 20,000 cells/well in a 96-well plate on day 1. Transfection was performed on day 2 using Lipofectamine 2000 with the P2X7R DNA plasmid at the concentration of 1.7 μg/ml. The transfection solution was replaced with the growth medium 4 hours later. Fluorescent assays were conducted on day 4. On day 4, the medium was removed, the cells were washed with phosphate buffered saline (PBS) (Cat. No. MT21040CV from Fisher Scientific). Then, 25 μl of PBS were first loaded to each well followed by 25 μl of various test compounds. The third 25 μl of solution contained a mixture of Yo-Pro-1 and stimulus bzATP (2′(3′)-O-(4-Benzoylbenzoyl)adenosine-5′-triphosphate tri(triethylammonium) salt). The final concentration of Yo-Pro-1 was 2.5 μM and of bzATP 30 μM. Fluorescence increases were measured every 30 minutes in a microplate device with excitation at 475 nm and emission wavelength in the range of 500-550 nm. PPADS (Pyridoxalphosphate-6-azophenyl-2′,4′-disulfonic acid tetrasodium) was used as the positive control. The wells with no test compounds added nor bzATP and only containing PBS and Yo-Pro-1 were served as the negative control (N Contl). The positive control (P Contl) wells were the same as N Contl but contained the stimulus, bzATP in this case.
(§2) Data used for analysis were from microplate readings 1 hour after bzATP stimulation. The result of each well was first normalized by its corresponding base microplate reading. The base microplate reading was the first reading right after all components were added. Then, the negative control signal was subtracted from. In the negative control, the test compound and the stimulus were replaced by PBS. An average of six highest values of the plate (AVG) were considered as 100% and the value of each well was divided by AVG and presented as the relative values in percentages.
For comparison of the antagonistic effectiveness of the compounds of this invention among P2X receptors, assays were conducted at 5 μM. Among 55 compounds tested, 29 can reduce the P2X7R activity to […] of the normal activity (Table 2).

SMILES	remaining activity at 5 µM [%]
CC1CCCCN1c1ccc(S(=O)(=O)N2CCCC(NC(=O)CCc3ccccc3)C2)cc1 (stereo not drawn) [#47]	-7.4
O=C(CCc1ccccc1)NC1CCCN(c2ccc(S(=O)(=O)N3CCCC3)cc2)C1 (stereo not drawn) [#55]	4.6
O=C(CCc1ccccc1)N1CCN(S(=O)(=O)c2ccc(N3CCCCC3)cc2)CC1 [#34]	4.8
O=C(CCc1ccccc1)NC1CCCN(S(=O)(=O)c2ccc(N3CCCC3)cc2)C1 (stereo not drawn) [#13]	0.8
O=S(=O)(c1ccccc1)C1CN(S(=O)(=O)c2ccc(N3CCCCC3)cc2)C1 [#10]	70.1
CC(C)(C)OC(=O)N1CCC(C2CCN(c3ccc(S(=O)(=O)N4CCCC(NC(=O)CCc5ccccc5)C4)cc3)CC2)CC1 (stereo not drawn) [#41]	18.3
O=C(CCc1ccccc1)NC1CCCN(S(=O)(=O)c2ccc(N3CCC(Oc4ccccc4)CC3)cc2)C1 (stereo not drawn) [#38]	7.5
O=C(CCc1ccccc1)N1CCN(S(=O)(=O)c2ccc(N3CCOCC3)cc2)CC1 [#32]	54.3
NC(=O)c1cc(Br)cc(N2CCOCC2)c1 [#28]	75.2
O=C(NCCc1ccccc1)C1CCN(S(=O)(=O)c2ccc(N3CCCC3)cc2)CC1 [#21]	36.2
O=C(CCc1ccccc1)NC1CCCN(S(=O)(=O)c2ccc(N3CCC(F)(F)CC3)cc2)C1 (stereo not drawn) [#46]	-8.6
O=C(NCCc1ccccc1)C1CCCN(S(=O)(=O)c2ccc(N3CCCC3)cc2)C1 (stereo not drawn) [#25]	36.8
O=C(CCc1ccccc1)NC1CCCN(S(=O)(=O)c2ccc(N3CCC(C(F)(F)F)CC3)cc2)C1 (stereo not drawn) [#42]	-1.7
O=C(CCc1ccccc1)NC1CCCN(S(=O)(=O)c2ccc(N3CCCCC3)c(Cl)c2)C1 (stereo not drawn) [#45]	33.1
O=C(CCc1ccccc1)N1CCN(S(=O)(=O)c2ccc(NC3CCCCC3)cc2)CC1 [#33]	-8.5
O=C(NCCc1ccccc1)C1CCN(S(=O)(=O)c2ccc(N3CCOCC3)cc2)CC1 [#23]	35.8
CC(C)(C)OC(=O)N1CCN(c2ccc(S(=O)(=O)N3CCC(C(=O)NCCc4ccccc4)CC3)cc2)CC1 [#22]	43
CC(C)OC1CCN(c2ccc(S(=O)(=O)N3CCCC(NC(=O)CCc4ccccc4)C3)cc2)CC1 (stereo not drawn) [#39]	11.1
CCCCNc1ccc(S(=O)(=O)N2CCCC(NC(=O)CCc3ccccc3)C2)cc1 (stereo not drawn) [#15]	-12.2
O=C(CCc1ccccc1)NC1CCCN(c2ccc(S(=O)(=O)NC3CCCCC3)cc2)C1 (stereo not drawn) [#51]	-1
O=C(CCc1ccccc1)NC1CCCN(S(=O)(=O)c2ccc(F)cc2)C1 (stereo not drawn) [#3]	13.5

Same assay, conditions: HEK-293 cells transiently transfected with P2X7R; 30 μM bzATP as stimulus; readings 1 hour after stimulation; estimated from dose-response curves

SMILES	IC50 [µM]
CC1CCCCN1c1ccc(S(=O)(=O)N2CCCC(NC(=O)CCc3ccccc3)C2)cc1 (stereo not drawn) [#47]	0.1
O=C(CCc1ccccc1)NC1CCCN(c2ccc(S(=O)(=O)N3CCCC3)cc2)C1 (stereo not drawn) [#55]	2.9
O=C(CCc1ccccc1)N1CCN(S(=O)(=O)c2ccc(N3CCCCC3)cc2)CC1 [#34]	2.7
O=C(CCc1ccccc1)NC1CCCN(S(=O)(=O)c2ccc(N3CCCC3)cc2)C1 (stereo not drawn) [#13]	1.6
O=S(=O)(c1ccccc1)C1CN(S(=O)(=O)c2ccc(N3CCCCC3)cc2)C1 [#10]	5.9
CC(C)(C)OC(=O)N1CCC(C2CCN(c3ccc(S(=O)(=O)N4CCCC(NC(=O)CCc5ccccc5)C4)cc3)CC2)CC1 (stereo not drawn) [#41]	1.8
O=C(CCc1ccccc1)NC1CCCN(S(=O)(=O)c2ccc(N3CCC(Oc4ccccc4)CC3)cc2)C1 (stereo not drawn) [#38]	0.9
O=C(CCc1ccccc1)N1CCN(S(=O)(=O)c2ccc(N3CCOCC3)cc2)CC1 [#32]	3.8
NC(=O)c1cc(Br)cc(N2CCOCC2)c1 [#28]	29
O=C(NCCc1ccccc1)C1CCN(S(=O)(=O)c2ccc(N3CCCC3)cc2)CC1 [#21]	0.9
O=C(CCc1ccccc1)NC1CCCN(S(=O)(=O)c2ccc(N3CCC(F)(F)CC3)cc2)C1 (stereo not drawn) [#46]	3.8
O=C(NCCc1ccccc1)C1CCCN(S(=O)(=O)c2ccc(N3CCCC3)cc2)C1 (stereo not drawn) [#25]	5.1
O=C(CCc1ccccc1)NC1CCCN(S(=O)(=O)c2ccc(N3CCC(C(F)(F)F)CC3)cc2)C1 (stereo not drawn) [#42]	0.9
O=C(CCc1ccccc1)NC1CCCN(S(=O)(=O)c2ccc(N3CCCCC3)c(Cl)c2)C1 (stereo not drawn) [#45]	9.3
O=C(CCc1ccccc1)N1CCN(S(=O)(=O)c2ccc(NC3CCCCC3)cc2)CC1 [#33]	0.4
O=C(NCCc1ccccc1)C1CCN(S(=O)(=O)c2ccc(N3CCOCC3)cc2)CC1 [#23]	26.6
CC(C)(C)OC(=O)N1CCN(c2ccc(S(=O)(=O)N3CCC(C(=O)NCCc4ccccc4)CC3)cc2)CC1 [#22]	12.6
CC(C)OC1CCN(c2ccc(S(=O)(=O)N3CCCC(NC(=O)CCc4ccccc4)C3)cc2)CC1 (stereo not drawn) [#39]	3.9
CCCCNc1ccc(S(=O)(=O)N2CCCC(NC(=O)CCc3ccccc3)C2)cc1 (stereo not drawn) [#15]	1
O=C(CCc1ccccc1)NC1CCCN(c2ccc(S(=O)(=O)NC3CCCCC3)cc2)C1 (stereo not drawn) [#51]	3.1
O=C(CCc1ccccc1)NC1CCCN(S(=O)(=O)c2ccc(F)cc2)C1 (stereo not drawn) [#3]	3.2

These compounds were tested against T2, Human P2X2 receptor (P2X2R) (Homo sapiens, UniProt Q9UBL9) (assay: Yo-Pro-1 uptake assay, P2X2R transfected HEK-293 cells). Conditions: HEK293, compound at 5 μM, 5 μM ATP stimulus, read-out: Percentage of activity remains in the presence of the compound at 5 μM, P2X2R (Yo-Pro-1 Assay).
T2 construct: expressed in transfected cells; host or cells: HEK-293
T2 sequence (Q9UBL9 1-471): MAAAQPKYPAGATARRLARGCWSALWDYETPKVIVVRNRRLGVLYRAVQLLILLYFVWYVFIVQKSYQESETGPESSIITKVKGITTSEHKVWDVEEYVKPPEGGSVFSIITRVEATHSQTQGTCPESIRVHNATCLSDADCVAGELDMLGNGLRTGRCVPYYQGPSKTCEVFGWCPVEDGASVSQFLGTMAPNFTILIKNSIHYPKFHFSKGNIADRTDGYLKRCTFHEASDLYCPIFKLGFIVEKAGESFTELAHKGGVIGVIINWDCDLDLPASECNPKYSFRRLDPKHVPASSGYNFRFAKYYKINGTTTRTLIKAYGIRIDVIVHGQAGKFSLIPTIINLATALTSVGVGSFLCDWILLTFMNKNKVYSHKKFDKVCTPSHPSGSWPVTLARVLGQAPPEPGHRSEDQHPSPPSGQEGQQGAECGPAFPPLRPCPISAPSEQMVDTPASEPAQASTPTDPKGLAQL
Type: cell-based
From the text: as §1, §2
Human P2X2 receptor (P2X2R) construct (J. Biol. Chem. 290, 7930-7942) was transiently transfected to HEK-293 cells and the Yo-Pro-1 assay was performed as described above. When 5 μM ATP was used as the stimulus, the elevation of receptor mediated activity can be seen in 10 minutes.

SMILES	remaining activity at 5 µM [%]
CC1CCCCN1c1ccc(S(=O)(=O)N2CCCC(NC(=O)CCc3ccccc3)C2)cc1 (stereo not drawn) [#47]	69.7
O=C(CCc1ccccc1)NC1CCCN(c2ccc(S(=O)(=O)N3CCCC3)cc2)C1 (stereo not drawn) [#55]	85.4
O=C(CCc1ccccc1)N1CCN(S(=O)(=O)c2ccc(N3CCCCC3)cc2)CC1 [#34]	72.4
O=C(CCc1ccccc1)NC1CCCN(S(=O)(=O)c2ccc(N3CCCC3)cc2)C1 (stereo not drawn) [#13]	48.9
O=S(=O)(c1ccccc1)C1CN(S(=O)(=O)c2ccc(N3CCCCC3)cc2)C1 [#10]	38.2
CC(C)(C)OC(=O)N1CCC(C2CCN(c3ccc(S(=O)(=O)N4CCCC(NC(=O)CCc5ccccc5)C4)cc3)CC2)CC1 (stereo not drawn) [#41]	61.4
O=C(CCc1ccccc1)NC1CCCN(S(=O)(=O)c2ccc(N3CCC(Oc4ccccc4)CC3)cc2)C1 (stereo not drawn) [#38]	57.6
O=C(CCc1ccccc1)N1CCN(S(=O)(=O)c2ccc(N3CCOCC3)cc2)CC1 [#32]	79.9
NC(=O)c1cc(Br)cc(N2CCOCC2)c1 [#28]	77.3
O=C(NCCc1ccccc1)C1CCN(S(=O)(=O)c2ccc(N3CCCC3)cc2)CC1 [#21]	50.8
O=C(CCc1ccccc1)NC1CCCN(S(=O)(=O)c2ccc(N3CCC(F)(F)CC3)cc2)C1 (stereo not drawn) [#46]	39.1
O=C(NCCc1ccccc1)C1CCCN(S(=O)(=O)c2ccc(N3CCCC3)cc2)C1 (stereo not drawn) [#25]	79.3
O=C(CCc1ccccc1)NC1CCCN(S(=O)(=O)c2ccc(N3CCC(C(F)(F)F)CC3)cc2)C1 (stereo not drawn) [#42]	59.2
O=C(CCc1ccccc1)NC1CCCN(S(=O)(=O)c2ccc(N3CCCCC3)c(Cl)c2)C1 (stereo not drawn) [#45]	83.3
O=C(CCc1ccccc1)N1CCN(S(=O)(=O)c2ccc(NC3CCCCC3)cc2)CC1 [#33]	60.9
O=C(NCCc1ccccc1)C1CCN(S(=O)(=O)c2ccc(N3CCOCC3)cc2)CC1 [#23]	77.1
CC(C)(C)OC(=O)N1CCN(c2ccc(S(=O)(=O)N3CCC(C(=O)NCCc4ccccc4)CC3)cc2)CC1 [#22]	72
CC(C)OC1CCN(c2ccc(S(=O)(=O)N3CCCC(NC(=O)CCc4ccccc4)C3)cc2)CC1 (stereo not drawn) [#39]	66.3
CCCCNc1ccc(S(=O)(=O)N2CCCC(NC(=O)CCc3ccccc3)C2)cc1 (stereo not drawn) [#15]	85
O=C(CCc1ccccc1)NC1CCCN(c2ccc(S(=O)(=O)NC3CCCCC3)cc2)C1 (stereo not drawn) [#51]	46.6
O=C(CCc1ccccc1)NC1CCCN(S(=O)(=O)c2ccc(F)cc2)C1 (stereo not drawn) [#3]	57
